Test results published in patent US10836789B2, “Inhibitors of glucocorticoid receptor” (ORIC Pharmaceuticals, Inc., priority 2016, dated 2020).

Biological target: T1, GR (Homo sapiens, UniProt P04150)
T1 construct: expressed in transfected cells; host or cells: CHO cells carrying GR and an MMTV-luciferase reporter
T1 sequence (P04150 1-777): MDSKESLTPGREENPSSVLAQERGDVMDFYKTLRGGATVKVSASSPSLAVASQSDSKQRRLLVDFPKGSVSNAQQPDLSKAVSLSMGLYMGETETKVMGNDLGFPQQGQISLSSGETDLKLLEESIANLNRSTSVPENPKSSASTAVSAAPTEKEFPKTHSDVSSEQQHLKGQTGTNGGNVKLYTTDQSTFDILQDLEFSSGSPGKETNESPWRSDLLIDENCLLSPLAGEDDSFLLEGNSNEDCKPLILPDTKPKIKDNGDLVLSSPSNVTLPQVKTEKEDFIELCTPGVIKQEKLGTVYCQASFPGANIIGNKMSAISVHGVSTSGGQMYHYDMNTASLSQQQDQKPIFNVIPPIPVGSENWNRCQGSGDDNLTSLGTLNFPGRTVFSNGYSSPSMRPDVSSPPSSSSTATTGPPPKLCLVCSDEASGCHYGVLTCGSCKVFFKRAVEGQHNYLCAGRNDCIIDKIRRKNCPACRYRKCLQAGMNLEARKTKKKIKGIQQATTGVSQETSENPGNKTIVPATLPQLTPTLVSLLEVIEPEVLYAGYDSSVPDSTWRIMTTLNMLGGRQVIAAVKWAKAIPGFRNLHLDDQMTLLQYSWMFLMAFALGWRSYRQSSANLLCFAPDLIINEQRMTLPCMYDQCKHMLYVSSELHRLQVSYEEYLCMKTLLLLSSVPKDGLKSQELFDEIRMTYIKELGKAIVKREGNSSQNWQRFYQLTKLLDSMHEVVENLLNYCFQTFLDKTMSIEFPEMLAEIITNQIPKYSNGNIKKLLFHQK
Assay: GR luciferase antagonist assay (CHO/GR/MMTV Luciferase cells)
Format: cell-based
Conditions: 10 nM Dexamethasone final, 16-18 h
Experimental: Example A: […] GR Luciferase Assay Cell Line: CHO/GR/MMTV Luciferase Culture Media: DMEM (with phenol red)+10% FBS Assay Media: DMEM (without phenol red)+10% CSS A 1×10 cm plate of cells was split into 2×15 cm plates in Assay Media (CSS). After 4 days, the cells in the Assay Media were collected and counted. Antagonist Assay: 1.5×10^4 cells per well were plated in a 384-well white walled TC plate in 20 ul of Assay Media containing 12.5 nM Dexamethasone (final concentration=10 nM). The plates were covered with film to avoid evaporation and placed in a TC incubator. Media/drug dilutions were prepared in Assay Media in 96-well sterile plates. 100 ul of Assay Media was distributed in aliquots into 96-well plates with an 8-Channel pipette (20-200 ul). 0.5 ul of 1000× concentration of compounds were added to the plates with 8-Channel pipette (0.5-10 ul). The plates were shaken for 15 seconds to mix. The film was removed from the 384-well plates with assay cells. 5 ul of media/drug dilutions were added to appropriate wells. The plates were covered with film to avoid evaporation and placed in a TC incubator overnight. After 16-18 h in the incubator, the plates were removed and sat at room temperature for 10 minutes to equilibrate. The Reagent Dispenser was setup to distribute 25 ul aliquots of OneGlo Luciferase Reagent (at room temperature) to each well of the 384-well plate using standard cassette. After OneGlo was added to the plates, the plates were shaken briefly, then incubated in the dark at room temperature for about 3 minutes. The plates were read using a Tecan or Promega luminometer. The ability of the compounds disclosed herein to inhibit GR activity was quantified and the respective IC50 value was determined. Table 3 provides the cellular IC50 values of various substituted steroidal compounds disclosed herein.

SMILES	IC50 [nM]
CC(C)(C)C#C[C@]1(O)CC[C@H]2[C@@H]3CCC4=CC(=O)CC[C@@H]4[C@H]3[C@@H](c3ccc4c(c3)OCCO4)C[C@@]21C [Compound 3, (8R,9S,10R,11S,13S,14S,17S)-11-(2,3-Dihydrobenzo[b][1,4]dioxin-6-yl)-17-(3,3-dimethylbut-1-yn-1-yl)-17-hydroxy-13-methyl-1,2,6,7,8,9,10,11,12,13,14,15,16,17-tetradecahydro-3H-cyclopenta[a]phenanthren-3-one]	≤ 100
CC(C)(C)C#C[C@]1(O)CC[C@H]2[C@@H]3CCC4=CC(=O)CC[C@@H]4[C@H]3[C@@H](c3ccc4c(c3)OCO4)C[C@@]21C [Compound 5, (8R,9S,10R,11S,13S,14S,17S)-11-(Benzo[d][1,3]dioxol-5-yl)-17-(3,3-dimethylbut-1-yn-1-yl)-17-hydroxy-13-methyl-1,2,6,7,8,9,10,11,12,13,14,15,16,17-tetradecahydro-3H-cyclopenta[a]phenanthren-3-one]	≤ 100
CCN(CC)c1ccc([C@H]2C[C@@]3(C)[C@@H](CC[C@@]3(O)C#CC(C)(C)C)[C@@H]3CCC4=CC(=O)CC[C@@H]4[C@H]32)cc1 [Compound 9, (8R,9S,10R,11S,13S,14S,17S)-11-(4-(Diethylamino)phenyl)-17-(3,3-dimethylbut-1-yn-1-yl)-17-hydroxy-13-methyl-1,2,6,7,8,9,10,11,12,13,14,15,16,17-tetradecahydro-3H-cyclopenta[a]phenanthren-3-one]	≤ 100
CCC#C[C@]1(O)CC[C@H]2[C@@H]3CCC4=CC(=O)CC[C@]4(C)[C@H]3[C@@H](c3ccc(NC)cc3)C[C@@]21C [Compound 12]	> 100

The next lines start with the values.

IC50 [nM]	SMILES
≤ 100	CC(C)(C)C#C[C@]1(O)CC[C@H]2[C@@H]3CCC4=CC(=O)CC[C@@H]4[C@H]3[C@@H](c3ccc(N)cc3)C[C@@]21C [Compound 13, (8R,9S,10R,11S,13S,14S,17S)-11-(4-Aminophenyl)-17-(3,3-dimethylbut-1-yn-1-yl)-17-hydroxy-13-methyl-1,2,6,7,8,9,10,11,12,13,14,15,16,17-tetradecahydro-3H-cyclopenta[a]phenanthren-3-one]
≤ 100	CC(C)N(C)c1ccc([C@H]2C[C@@]3(C)[C@@H](CC[C@@]3(O)C#CC(C)(C)C)[C@@H]3CCC4=CC(=O)CC[C@@H]4[C@H]32)cc1F [Compound 15, (8R,9S,10R,11S,13S,14S,17S)-17-(3,3-Dimethylbut-1-yn-1-yl)-11-(3-fluoro-4-(isopropyl(methyl)amino)phenyl)-17-hydroxy-13-methyl-1,2,6,7,8,9,10,11,12,13,14,15,16,17-tetradecahydro-3H-cyclopenta[a]phenanthren-3-one]
> 100	CC(C)N(C)c1ccc([C@H]2C[C@@]3(C)[C@@H](CC[C@@]3(O)C#CC(C)(C)C)[C@@H]3CCC4=CC(=O)CC[C@]4(C)[C@H]32)cc1 [Compound 16]
> 100	CC#C[C@]1(O)CC[C@H]2[C@@H]3CCC4=CC(=O)CC[C@]4(C)[C@H]3[C@@H](c3ccc(NC)cc3)C[C@@]21C [Compound 23]
≤ 100	CC(=O)N1CCN(c2ccc([C@H]3C[C@@]4(C)[C@@H](CC[C@@]4(O)C#CC(C)(C)C)[C@@H]4CCC5=CC(=O)CC[C@@H]5[C@H]43)cc2)CC1 [Compound 24]
> 100	CC#C[C@]1(O)CC[C@H]2[C@@H]3CCC4=CC(=O)CC[C@]4(C)[C@H]3[C@@H](c3ccc(N)cc3)C[C@@]21C [Compound 26, (8S,9R,10R,11S,13S,14S,17S)-11-(4-Aminophenyl)-17-hydroxy-10,13-dimethyl-17-(prop-1-yn-1-yl)-1,2,6,7,8,9,10,11,12,13,14,15,16,17-tetradecahydro-3H-cyclopenta[a]phenanthren-3-one]
≤ 100	CC(C)(C)C#C[C@]1(O)CC[C@H]2[C@@H]3CCC4=CC(=O)CC[C@@H]4[C@H]3[C@@H](c3ccc(N4CCN(S(C)(=O)=O)CC4)cc3)C[C@@]21C [Compound 27]
